The text below walks through data of publication PMC10025185, “A continuous in silico learning strategy to identify safety liabilities in compounds used in the leather and textile industry” (Archives of Toxicology, 2023).

Like-named read-outs stand apart in the source and are kept apart here.

For data set [1], the system named is androgen and oestrogen receptors. Description: ED assays of androgen and oestrogen receptors (overall experimental ED result). Format: cell-based. The procedure: The transcriptional activation of androgen receptor (AR) assays was carried out by adapting the OECD protocol 458 (OECD [2020]).
MDA-MB-453 cells (8000 cells/well) expressing an AR luciferase reporter were seeded into 384 white plates (Greiner 781098) in culture medium (DMEM (ATCC), 10% foetal bovine serum (Sigma Aldrich), 1% penicillin–streptomycin (Sigma-Aldrich), 75 µg/ml geneticin (Gibco) and incubated overnight at 37 °C 5% CO2 and 95% humidity. After this time, the cell culture medium was discarded and replaced by assay medium (DMEM (ATCC), 0.1% foetal bovine serum (Sigma-Aldrich), and 1% penicillin–streptomycin (Sigma Aldrich)).
For studying a putative agonist effect, compounds were added to the assay plate using an Echo 550 acoustic liquid handler and incubated overnight at 37 °C 5% CO2 and 95% humidity. For studying the putative antagonist effect, compounds were added using an Echo 550 acoustic liquid handler and incubated for 15 min at 37 °C 5% CO2 and 95% humidity. Then, 1 nM 5α-dihydrotestosterone (DHT) was added, and the cell plate was incubated overnight at 37 °C, 5% CO2, and 95% humidity. After compound incubation, the cell medium was removed, 5 µl of lysis buffer 1X (Promega) was added, and the cell plate was incubated with agitation 15 min at room temperature. A freeze–thaw cycle of 10 min at −80 °C and room temperature was performed. Then 25 µl of luciferase assay reagent (Promega) was added and luminescence was determined on an EnSpire plate reader (Perkin Elmer). Data was fitted to a four-parameter sigmoidal model with Prism 5.1 (Graphpad, Inc).
The transcriptional activation of oestrogen receptor (ER) assay was carried out by adapting the OECD protocol 455 (OECD [2021]) and the method of Li et al. ([2013]).
ER luciferase reporter T47D cells (5000 cells/well) were seeded into 384 white plates (Greiner 781098) in culture medium (RPMI 1640 (Thermo Fisher Scientific 52400), 10% foetal bovine serum (Sigma Aldrich F9665), 1% penicillin–streptomycin (Sigma-Aldrich P0781), 75 µg/ml Geneticin (Gibco 10131)) and incubated overnight at 37 °C and 5% CO2. The following day, the cell culture medium was discarded and replaced by assay medium (RPMI 1640 (Thermo Fisher Scientific 52,400), 0.1% foetal bovine serum (Sigma Aldrich F9665), and 1% penicillin–streptomycin (Sigma Aldrich P0781).
The assay was performed as stated before for the AR assay using 17β-estradiol as agonist instead of DHT.
ED was assessed by transactivation in vitro assays to identify agonists and antagonists of the androgen and oestrogen receptors.
Also, the experimental group analysed the endocrine-disrupting activity for the CMR compounds.

A further data set has as its system thyroid system. The following applies: cited from earlier work.
Details of data set [2]: method as in earlier work. The note with it: experimental value; ref https://comptox.epa.gov/dashboard, https://echa.europa.eu/es/information-on-chemicals; cited from earlier work.
Data set [3] is described as follows: logKow as a measure of bioaccumulation, extracted from public databases. In kind it is physicochemical. The following applies: yes/no by logKow, REACH cut off 4,5.
A further data set relates to zebrafish embryos. The following applies: FET assay. On the procedure:
(§1) Acute toxicity was determined using the OECD236 fish embryo acute toxicity (FET) test (OECD guidelines). To assess the PBT potentiality of the analysed compounds, persistence and the logKow as a measure of bioaccumulation were extracted from public databases (https://comptox.epa.gov/dashboard, and https://echa.europa.eu/es/information-on-chemicals).

A short description of data set [4]: PBT assessment (persistence, bioaccumulation and FET toxicity combined, logical AND). The note with it: persistent, bioaccumulative and toxic all positive. On the procedure:
as §1
Ecotoxicity of selected compounds was screened with the FET assay to determine acute toxicity and using available predictions of persistence and bioaccumulation.

For the compound `O=C(O)C(F)(F)C(F)(F)C(F)(F)C(F)(F)F` [Nonafluorovaleric acid], the Experimental result in data set [1] (endocrine disruptor yes/no) is on record as “No”. The endocrine-disrupting activity result in the data set with thyroid system (ref Coperchini et al. [2021], Croce et al. [2019]) is given as “thyroid system affection”.

`ClC1C(Cl)C(Cl)C(Cl)C(Cl)C1Cl` (stereo not drawn) [(1α,2α,3α,4β,5α,6β)-1,2,3,4,5,6-Hexachlorocyclohexane]: the “Bioaccumulation (logKow)” value in data set [2] is 3.95. Besides, the Bioaccumulation result in data set [3] is “No”. Besides, in the data set on zebrafish embryos, the acute toxicity entry is on record as “highly toxic”.

Consider `Oc1cc(Cl)cc(Cl)c1Cl` [2,3,5-Trichlorophenol], for which the “Potential PBT” value in data set [4] is recorded as “not a potential PBT compound”. Besides, in data set [2], the “Bioaccumulation (logKow)” value is 3.84. In data set [3], the Bioaccumulation result is listed as “No”. The Experimental result in data set [1] is given as “Yes”.

`Clc1cc(Cl)c(Cl)c(Cl)c1` [1,2,3,5-Tetrachlorobenzene]: the “Potential PBT” value in data set [4] is reported as “YES”; in data set [4] (listed as 1,2,3,5-tetrachlorobenzene), “potential PBT compounds”. For the same compound, the “Bioaccumulation (logKow)” value in data set [2] is on record as 4.61. Moreover, the Bioaccumulation entry in data set [3] is given as “Yes”. In data set [1] (endocrine disruptor yes/no), the Experimental result was “No”. Moreover, the endocrine-disrupting activity result in the data set with thyroid system (ref Chu et al. [1983], den Besten et al. [1991]) was “thyroid system affection”.

Turning to `Clc1cc(Cl)c(Cl)c(Cl)c1Cl` [1,2,3,4,5-Pentachlorobenzene], the figures for the “Potential PBT” value in data set [4] (listed as Pentachlorobenzene) and in data set [4] (listed as pentachlorobenzene) were “YES” and “potential PBT compounds”, respectively. Further, the “Bioaccumulation (logKow)” value in data set [2] is listed as 5.17. In addition, in data set [3], the Bioaccumulation result is listed as “Yes”.
